Measurements reported in patent US9090600B2, “Fungicidal 4-substituted-3-{phenyl[(heterocyclylmethoxy)imino]methyl}-1,2,4-oxadizol-5(4H)-one derivatives” (BAYER INTELLECTUAL PROPERTY GMBH, priority 2011, dated 2015).
Where two headings read alike, the source gives them in different places. Marks after values point to notes of the source that are not given here.

Columns and labels:
Phytophthora infestans [1] = format: in vivo; conditions: tomato, preventive spray, 100 ppm of active ingredient, evaluated 7 days after inoculation
Plasmopara viticola = experiment: Plasmopara test (grapevines)/preventive; format: in vivo; conditions: preventive spray, 10 ppm of active ingredient, evaluated 6 days after inoculation
Procedure: Solvent: 24.5 parts by weight of acetone • 24.5 parts by weight of dimethylacetamide
Emulsifier: 1 part by weight of alkylaryl polyglycol ether
To produce a suitable preparation of active compound, 1 part by weight of active compound is mixed with the stated amounts of solvent and emulsifier, and the concentrate is diluted with water to the desired concentration.
To test for preventive activity, young plants are sprayed with the preparation of active compound at the stated rate of application. After the spray coating has dried on, the plants are inoculated with an aqueous spore suspension of Plasmopara viticola and then remain for 1 day in an incubation cabinet at approximately 20° C. and a relative atmospheric humidity of 100%. The plant is subsequently placed for 4 days in a greenhouse at approximately 21° C. and a relative atmospheric humidity of approximately 90%. The plants are then misted and placed for 1 day in an incubation cabinet.
The test is evaluated 6 days after the inoculation. 0% means an efficacy which corresponds to that of the untreated control, while an efficacy of 100% means that no disease is observed.

[2] = pH 2.7
Phytophthora infestans [3] = format: in vivo; conditions: tomato plants, spray, 500 ppm, grading 5 days after contamination
[4] = tested on: Mycosphaerella graminicola; experiment: In vivo test on Mycosphaerella graminicola (wheat leaf spot); conditions: wheat plants, spray, 500 ppm, grading 21 to 28 days after contamination
Procedure: The active ingredients tested are prepared by homogenization in a mixture of acetone/tween/DMSO, then diluted with water to obtain the desired active material concentration.
Wheat plants (Scipion variety), sown on a 50/50 peat soil-pozzolana substrate in starter cups and grown at 22° C. (12 h)/20° C. (12 h), are treated at the 1-leaf stage (10 cm tall) by spraying with the aqueous suspension described above. Plants, used as controls, are treated with an aqueous solution not containing the active material.
After 24 hours, the plants are contaminated by spraying them with an aqueous suspension of cryopreserved Mycosphaerella graminicola spores (500.000 spores per ml). The contaminated wheat plants are incubated for 72 hours at 18° C. and at 100% relative humidity, and then for 21 to 28 days at 90% relative humidity.
Grading (% of efficacy) is carried out 21 to 28 days after the contamination, in comparison with the control plants.
(§1) Under these conditions, good (at least 70%) or total protection is observed at a dose of 500 ppm with the following compounds: […]

Puccinia recondita = experiment: In vivo test on Puccinia recondita (brown rust); conditions: wheat plants, spray, 500 ppm, grading 10 days after contamination
Procedure: The active ingredients tested are prepared by homogenization in a mixture of acetone/tween/DMSO, then diluted with water to obtain the desired active material.
Wheat plants (Scipion variety) sown on 50/50 peat soil-pozzolana substrate in starter cups and grown at 22° C. (12 h)/20° C. (12 h), are treated at the 1-leaf stage (10 cm tall) by spraying with the aqueous suspension described above.
Plants, used as controls, are treated with an aqueous solution not containing the active material. After 24 hours, the plants are contaminated by spraying the leaves with an aqueous suspension of Puccinia recondite spores (100.000 spores per ml). The spores are collected from a 10-day-old contaminated wheat and are suspended in water containing 2.5 ml/l of tween 80 10%. The contaminated wheat plants are incubated for 24 hours at 20° C. and at 100% relative humidity, and then for 10 days at 20° C. and at 70% relative humidity. Grading is carried out 10 days after the contamination, in comparison with the control plants.
as §1

SMILES	Eff. % (Phytophthora infestans [1]) [%]	Eff. % (Plasmopara viticola) [%]	LogP [2]	Eff. % (Phytophthora infestans [3]) [%]	Eff. % [4] [%]	Eff. % (Puccinia recondita) [%]
Cn1c(/C(=N\OCc2cccc(NC(=O)OCCC3CCCCC3)n2)c2ccccc2)noc1=O [Example 5]	95	88	5.27 [a]			
Cn1c(/C(=N\OCc2cccc(NC(=O)OCCc3ccccc3)n2)c2ccccc2)noc1=O [Example 7]	95	96	4.15 [a]			
CCCCCCC(=O)Nc1cccc(CO/N=C(/c2ccccc2)c2noc(=O)n2C)n1 [Example 8]	98	99	4.3 [a]	100		
CCCCCCC(=O)Nc1nc(CO/N=C(/c2ccccc2)c2noc(=O)n2C)cs1 [Example 9]	95	94	4.13 [a]			
Cn1c(/C(=N\OCc2csc(NC(=O)C3COc4ccccc4O3)n2)c2ccccc2)noc1=O (stereo not drawn) [Example 10]	95	96	3.62 [a]			
Cn1c(/C(=N\OCc2csc(NC(=O)C3CCc4ccccc4O3)n2)c2ccccc2)noc1=O (stereo not drawn) [Example 11]	100	98	3.94 [a]			
CCCCCOC(=O)Nc1nc(CO/N=C(/c2ccccc2)c2noc(=O)n2C)cs1 [Example 12]	95	94	4.11 [a]			
CCCCC(=O)Nc1nc(CO/N=C(/c2ccccc2)c2noc(=O)n2C)cs1 [Example 13]	95	93	3.37 [a]			
Cn1c(/C(=N\OCc2cccc(NC(=O)OCC3CCCC3)n2)c2ccccc2)noc1=O [Example 16]	98	94	4.53 [a]			
Cn1c(/C(=N\OCc2cccc(NC(=O)c3cccc(F)c3)n2)c2ccccc2)noc1=O [Example 17]	98	94	3.69 [a]			
Cn1c(/C(=N\OCc2csc(NC(=O)c3cccc(F)c3)n2)c2ccccc2)noc1=O [Example 20]	95	94	3.6 [a]			
CCCCCOC(=O)Nc1cccc(CO/N=C(\c2ccccc2)c2noc(=O)n2C)n1 [Example 26]	93		4.24 [a]			
Cc1cccc(/C(=N/OCc2cccc(N)n2)c2noc(=O)n2C)c1 [Example 30]			1.45 [a]	100	86	
C#CCCOC(=O)Nc1cccc(CO/N=C(/c2ccccc2)c2noc(=O)n2C(F)F)n1 [Example 58]	80		3.64 [a]			
Cn1c(/C(=N\OCc2cccc(NC(=O)CCCl)n2)c2ccccc2)noc1=O [Example 63]			3.02 [a]	100		75
C#CCCOC(=O)Nc1cccc(CO/N=C(/c2ccccc2)c2noc(=O)n2CC#N)n1 [Example 70]	84		3.31 [a]			
Cn1c(/C(=N\OCc2cccc(NC(=O)CCCCBr)n2)c2ccccc2)noc1=O [Example 73]			3.59 [a]	100		81
Cn1c(/C(=N\OCc2cccc(NCCc3ccccc3)n2)c2ccccc2)noc1=O [Example 74]	95	94	2.78 [a]			
C#CCCOC(=O)Nc1cccc(CO/N=C(/c2ccccc2)c2noc(=O)n2CC#C)n1 [Example 86]	90		3.46 [a]			
CCn1c(/C(=N\OCc2cccc(NC(=O)Cc3ccc(OC)cc3)n2)c2ccccc2)noc1=O [Example 88]			3.7 [a]	98		78
C#CCCOC(=O)Nc1cccc(CO/N=C(/c2ccccc2)c2noc(=O)n2CC)n1 [Example 104]	93	100	3.51 [a]			

SMILES	Eff. % (Phytophthora infestans [1]) [%]	Eff. % (Plasmopara viticola) [%]	LogP [2]	Eff. % (Phytophthora infestans [3]) [%]	Eff. % [4] [%]	Eff. % (Puccinia recondita) [%]
CCC(C)(C)OC(=O)Nc1cccc(CO/N=C(/c2ccccc2)c2noc(=O)n2C)n1 [Example 120]		84	1.99 [a]	100		98
COc1cccc(/C(=N/OCc2cccc(NC(=O)OC(C)(C)C)n2)c2noc(=O)n2C)c1 [Example 131]			3.99 [a]	100		81
Cn1c(/C(=N\OCc2cccc(NC/C=N/OCc3ccccc3)n2)c2ccccc2)noc1=O [Example 136]	95	75	3.35 [a]			
Cn1c(/C(=N\OCc2cccc(NC(=O)C(C)(C)C)n2)c2ccccc2)noc1=O [Example 148]	97	100	3.48 [a]	100		
Cn1c(/C(=N\OCc2csc(NC(=O)C(C)(C)C)n2)c2ccccc2)noc1=O [Example 154]	95		3.42 [a]			
CCCCCCNc1cccc(CO/N=C(/c2ccccc2)c2noc(=O)n2C)n1 [Example 163]	95	96	2.64 [a]			
COc1ccc(/C(=N/OCc2cccc(NC(=O)C(F)(F)F)n2)c2noc(=O)n2C)cc1 [Example 191]			3.37 [a]	95		89
CCCCCC(=O)Nc1nc(CO/N=C(/c2ccccc2)c2noc(=O)n2C)cs1 [Example 198]	95	100	3.76 [a]			
CCCCOC(=O)Nc1cccc(CO/N=C(/c2cccc(C)c2)c2noc(=O)n2C)n1 [Example 215]			4.36 [a]	98		81
Cc1cccc(/C(=N/OCc2cccc(NC(=O)OC(C)CC(C)C)n2)c2noc(=O)n2C)c1 (stereo not drawn) [Example 223]			5.05 [a]		80	
CC(C)C(C)OC(=O)Nc1cccc(CO/N=C(/c2ccccc2)c2noc(=O)n2C)n1 (stereo not drawn) [Example 292]		90	4.27 [a]	99		75
C#CC(C)(C)OC(=O)Nc1cccc(CO/N=C(/c2ccccc2)c2noc(=O)n2C)n1 [Example 317]		91	3.6 [a]	98		81
CCC(Oc1ccccc1)C(=O)Nc1nc(CO/N=C(/c2ccccc2)c2noc(=O)n2C)cs1 (stereo not drawn) [Example 322]	75		3.99 [a]			
Cn1c(/C(=N\OCc2cccc(NC(=O)CCc3ccccc3)n2)c2ccc(F)cc2)noc1=O [Example 324]			3.87 [a]	94		75
COc1cccc(/C(=N/OCc2cccc(NC(=O)OCCc3ccccc3)n2)c2noc(=O)n2C)c1 [Example 325]		84	4.19 [a]	99		75
Cn1c(/C(=N\OCc2cccc(N(C(=O)Oc3ccc(F)cc3)C(=O)Oc3ccc(F)cc3)n2)c2ccccc2)noc1=O [Example 330]			4.2 [a]		83	
Cn1c(/C(=N\OCc2cccc(NC(=O)CCc3ccccc3)n2)c2ccccc2)noc1=O [Example 347]	92	100	3.78 [a]	100		
Cn1c(/C(=N\OCc2cccc(NC(=O)OC3CCCCC3)n2)c2ccc(F)cc2)noc1=O [Example 351]			4.54 [a]	93		75
C#CCCC(C)OC(=O)Nc1cccc(CO/N=C(/c2ccccc2)c2noc(=O)n2C)n1 (stereo not drawn) [Example 395]		93	3.8 [a]	99		72
C#CCCOC(=O)Nc1cccc(CO/N=C(/c2ccccc2)c2noc(=O)n2CC=C)n1 [Example 405]	95	85	3.61 [a]			
